Results: patent publication EP4725508A1, “LIGAND-DRUG CONJUGATE HAVING FREE PAYLOAD RECOVERY UNIT” (RemeGen Co., Ltd., priority 2024, dated 2025)
Like-named read-outs stand apart in the source and are kept apart here. Square brackets hold non-standard residues; d marks the D form. Peptide text beside a SMILES is read from it. * marks the point of attachment. Dolaproine = CO[C@@H]([C@@H]1CCCN1)[C@@H](C)C(=O)O; Dil = CC[C@H](C)[C@H](NC)[C@@H](CC(=O)O)OC; X1 = C[C@@H](N*)[C@@H](O)c1ccccc1; NMeV = CN[C@H](C(=O)O)C(C)C

What was measured:
HCC1954 [1] = assay: Cell killing activity; assay type: cell-based
OVCAR3 [2] = assay: Cell killing activity; assay type: cell-based
CHOK1 [3] = assay: Cell killing activity; assay type: cell-based
[4] = target: humanized antibody ABC3320 (Heavy chain: SEQ ID NO: 163; Light chain: SEQ ID NO: 164); assay: Biacore determination, binding affinity with free MMAE; conditions: antibody immobilized with ProA probe; free MMAE 50-1.85 nM
Protocol: (§1) Antibody immobilization: 20 µg/mL of antibody was immobilized onto the chip surface using a ProA probe; Binding: Antigen MMAE concentrations were 50, 16.7, 5.5, 1.85, and 0 nM. The flow rate was set at 30 µL/min, and the contact time was 600 s; Dissociation: The chip was washed with HEPES buffer for 300 s. Regeneration: Regeneration was performed with 10 mM Glycine-HCl.

chimeric antibody No. 1 = assay: as above; design: species or system mouse; conditions: antibody immobilized with ProA probe; free MMAE 50-1.85 nM
Protocol: as §1

chimeric antibody No. 44 = assay: as above; design: species or system mouse; conditions: antibody immobilized with ProA probe; free MMAE 50-1.85 nM
Protocol: as §1

[5] = target: chimeric antibody No. 62 (VH SEQ ID NO: 1, VL SEQ ID NO: 5); assay: as above; design: species or system mouse; conditions: antibody immobilized with ProA probe; free MMAE 50-1.85 nM
Protocol: as §1

chimeric antibody No. 69 = assay: as above; design: species or system mouse; conditions: antibody immobilized with ProA probe; free MMAE 50-1.85 nM
Protocol: as §1

chimeric antibody No. 74 = assay: as above; design: species or system mouse; conditions: antibody immobilized with ProA probe; free MMAE 50-1.85 nM
Protocol: as §1

chimeric antibody No. 89 = assay: as above; design: species or system mouse; conditions: antibody immobilized with ProA probe; free MMAE 50-1.85 nM
Protocol: as §1

chimeric antibody No. 92 = assay: as above; design: species or system mouse; conditions: antibody immobilized with ProA probe; free MMAE 50-1.85 nM
Protocol: as §1

chimeric antibody No. 93 = assay: as above; design: species or system mouse; conditions: antibody immobilized with ProA probe; free MMAE 50-1.85 nM
Protocol: as §1

[6] = system: chimeric antibody No. 62 (VH SEQ ID NO: 1, VL SEQ ID NO: 5); assay: Blocking experiment (ELISA, OVA-MMAF coated); assay type: binding, mouse; conditions: MMAE+antibody; OVA-MMAF coated 200 ng/mL; antibody 100 ng/mL
Protocol: (§2) Blocking Experiment: OVA-MMAF was coated onto ELISA plates at a concentration of 200 ng/mL and incubated at 37°C for 1 h. The plates were blocked with 5% skim milk and incubated at 37°C for 2 h. The antibody was diluted to a final concentration of 100 ng/mL. MMAE and MMAE-Linker were diluted at concentrations of 600, 200, 66.67, 22.22, 7.41, 2.47, 0.82, 0.27, 0.09, 0.03, and 0.01 nM. 50 µL MMAE + 50 µL chimeric antibody and 50 µL MMAE-Linker + 50 µL chimeric antibody were added respectively to the ELISA plates. The total volume per well was 100 µL. The plates were incubated at 37°C for 1 h. Goat Anti-Human IgG H&L (HRP) (abcam, ab6858) diluted at 1:5000 was added, incubated at 37°C for 1 h, and then subjected to TMB color development. The OD value was determined at 450 nm.

[7] = system: chimeric antibody No. 64 (VH SEQ ID NO: 8, VL SEQ ID NO: 12); assay: Blocking experiment (ELISA, OVA-MMAF coated); assay type: binding, mouse; conditions: MMAE+antibody; OVA-MMAF coated 200 ng/mL; antibody 100 ng/mL
Protocol: as §2

[8] = system: humanized antibody ABC3320 (Heavy chain: SEQ ID NO: 163; Light chain: SEQ ID NO: 164); assay: Blocking experiment (ELISA, OVA-MMAF coated); assay type: binding; conditions: MMAE+ antibody; OVA-MMAF coated 200 ng/mL; antibody 100 ng/mL; control in Tables 6, 8, 10, 12
Protocol: as §2
(§3) Blocking Experiment: The experimental steps were the same as the above blocking experiment.

[9] = system: chimeric antibody No. 132 (VH SEQ ID NO: 39, VL SEQ ID NO: 43); assay: Blocking experiment (ELISA, OVA-MMAF coated); assay type: binding, mouse; conditions: MMAE+antibody; OVA-MMAF coated 200 ng/mL; antibody 100 ng/mL
Protocol: as §2, §3

[10] = system: chimeric antibody No. 133 (VH SEQ ID NO: 46, VL SEQ ID NO: 49); assay: Blocking experiment (ELISA, OVA-MMAF coated); assay type: binding, mouse; conditions: MMAE+antibody; OVA-MMAF coated 200 ng/mL; antibody 100 ng/mL
Protocol: as §2, §3

[11] = system: chimeric antibody No. 92 (VH SEQ ID NO: 28, VL SEQ ID NO: 32); assay: Blocking experiment (ELISA, OVA-MMAF coated); assay type: binding, mouse; conditions: MMAE+antibody; OVA-MMAF coated 200 ng/mL; antibody 100 ng/mL
Protocol: as §2, §3

[12] = system: chimeric antibody No. 93 (VH SEQ ID NO: 35, VL SEQ ID NO: 38); assay: Blocking experiment (ELISA, OVA-MMAF coated); assay type: binding, mouse; conditions: MMAE+antibody; OVA-MMAF coated 200 ng/mL; antibody 100 ng/mL
Protocol: as §2, §3

[13] = system: chimeric antibody No. J4 (VH SEQ ID NO: 21, VL SEQ ID NO: 25); assay: Blocking experiment (ELISA, OVA-MMAF coated); assay type: binding, mouse; conditions: MMAE+antibody; OVA-MMAF coated 200 ng/mL; antibody 100 ng/mL
Protocol: as §2, §3

Nectin-4 = target: T1, Nectin-4 (Homo sapiens, UniProt Q96NY8); assay: Binding activity with Nectin-4
T1 sequence (Q96NY8 32-510): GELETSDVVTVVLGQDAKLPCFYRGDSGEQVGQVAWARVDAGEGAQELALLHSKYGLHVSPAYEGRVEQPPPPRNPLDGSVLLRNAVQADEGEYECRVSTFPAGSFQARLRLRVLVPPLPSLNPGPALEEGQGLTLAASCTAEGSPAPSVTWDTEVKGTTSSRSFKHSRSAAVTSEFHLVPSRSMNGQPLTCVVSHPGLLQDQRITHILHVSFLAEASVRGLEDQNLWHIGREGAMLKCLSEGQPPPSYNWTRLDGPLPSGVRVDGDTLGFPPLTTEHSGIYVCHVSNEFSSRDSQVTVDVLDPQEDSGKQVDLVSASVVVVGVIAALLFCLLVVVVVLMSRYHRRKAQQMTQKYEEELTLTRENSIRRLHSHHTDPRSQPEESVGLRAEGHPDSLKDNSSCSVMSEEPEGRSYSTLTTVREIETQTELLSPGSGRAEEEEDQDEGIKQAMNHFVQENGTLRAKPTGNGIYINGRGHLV

HCC1954 [14] = assay: Cell killing activity; assay type: cell-based; remark: listed apart in the source
OVCAR3 [15] = assay: Cell killing activity; assay type: cell-based; remark: listed apart in the source
CHOK1 [16] = assay: Cell killing activity; assay type: cell-based; remark: listed apart in the source
[17] = Comparative study of toxicity in BALB/c mice; assay type: in vivo
Protocol: (§4) Test 1: 18 BALB/c mice, female, with body weights of 16 to 19 g at the time of grouping, were divided into a PR-ADC group (CDCP1A9-DL01-MMAE, 140 mg/kg) and a conventional ADC group (CDCP1A6-DL01-MMAE, 100 mg/kg), both at equimolar doses, with 9 mice in each group (5 for toxicology + 4 for toxicokinetic (TK)), for a total of 2 groups. A single dose was administered, with a dosing volume of 10 mL/kg. The drug-related toxic effects in BALB/c mice for each group were investigated and compared through aspects such as death, clinical observation, body weight, and toxicokinetic detection. The experiment lasted for 14 days.
(§5) Test 2: 16 BALB/c mice, female, with body weights of 16 to 20 g at the time of grouping, were divided into PR-ADC group (CDCP1A12-DL01-MMAE, 134 mg/kg) and conventional ADC group (CDCP1A6-DL01-MMAE, 100 mg/kg) dose group, both at equimolar doses, with 8 mice in each group (4 for toxicology + 4 for TK), for a total of 2 groups. A single dose was administered, with a dosing volume of 10 mL/kg. The drug-related toxic effects in BALB/c mice for each group were investigated and compared through aspects such as death, clinical observation, body weight, and toxicokinetic detection. The experiment lasted for 14 days.
(§6) 18 BALB/c mice, female, with body weights of 16 to 19 g at the time of grouping, were divided into a PR-ADC group (Nectin4A14-DL01-MMAE, 136 mg/kg) and a conventional ADC group (EV, 100 mg/kg), both at equimolar doses, with 9 mice in each group (5 for toxicology + 4 for TK), for a total of 2 groups.

[18] = Toxicokinetics of free MMAE in serum (Hybrid LBA LC-MS/MS); assay type: in vivo; conditions: BALB/c mice, Nectin4A14-DL01-MMAE 136 mg/kg vs EV 100 mg/kg
Protocol: as §4
Free MMAE was determined using a Hybrid LBA LC-MS/MS method. Protein A/G-Beads were used to separate the ADC/PR-ADC, MMAE-bound PR-ADC, and MMAE-bound anti-MMAE antibodies from the serum. The remaining samples were subjected to protein precipitation and then tested for free MMAE using the LC-MS/MS method. Table 34. Toxicity test results of animals in each group
as §5
Free MMAE was also determined using the Hybrid LBALC-MS/MS method. Table 36. Toxicity test results of animals in each group
as §6
Free MMAE was also determined using the Hybrid LBA LC-MS/MS method. Table 38. […]

[19] = system: human bladder cancer cell HT-1376 subcutaneous xenograft; assay: Efficacy in subcutaneous xenograft model; assay type: in vivo, BALB/c-nu mice; conditions: equimolar doses
Protocol: Human bladder cancer cells HT-1376 were expanded and cultured, and then subcutaneously inoculated into the right forelimb axilla near the back of BALB/c-nu mice (GemPharmatech, female). Tumor growth was observed. When the tumor volume reached about 90 to 200 mm^3, the mice were randomized into groups based on tumor volume and administered with drugs.
The day of administration was designated as D0. During the experiment, tumor long diameter, short diameter, and body weight were measured twice a week, accompanied by observation of clinical symptoms. At the endpoint of the experiment, the experimental mice were euthanized.

## CC[C@H](C)[C@@H]([C@@H](CC(=O)N1CCC[C@H]1[C@H](OC)[C@@H](C)C(=O)N[C@H](C)[C@@H](O)c1ccccc1)OC)N(C)C(=O)[C@@H](NC(=O)[C@@H](NC)C(C)C)C(C)C [MMAE, monomethyl auristatin E] (H-[NMeV]V[Dil][Dolaproine]-X1)
HCC1954 [1]
  MIR (%): 60.95%
HCC1954 [1]; Homo sapiens
  IC50: 0.31 nM
OVCAR3 [2]
  MIR (%): 3.69%
OVCAR3 [2]; Homo sapiens, OVCAR-3
  IC50: 0.31 nM
CHOK1 [3]
  MIR (%): 83.94%
CHOK1 [3]; Cricetulus griseus, CHO-K1
  IC50: 34.9 nM
[4]
  Kd: 0.318 nM
  ka: 100000 M⁻¹ s⁻¹
  kd: 3.18e-05 s⁻¹
Chimeric antibody No. 1
  Kd: 1.78 nM
  ka: 53500 M⁻¹ s⁻¹
  kd: 9.52e-05 s⁻¹
Chimeric antibody No. 44
  Kd: 1.78 nM
  ka: 326000 M⁻¹ s⁻¹
  kd: 0.00058 s⁻¹
[5]
  Kd: 0.741 nM
  ka: 105000 M⁻¹ s⁻¹
  kd: 7.78e-05 s⁻¹
Chimeric antibody No. 69
  Kd: 2.14 nM
  ka: 70200 M⁻¹ s⁻¹
  kd: 0.00015 s⁻¹
Chimeric antibody No. 74
  Kd: 2.14 nM
  ka: 84400 M⁻¹ s⁻¹
  kd: 0.00018 s⁻¹
Chimeric antibody No. 89
  Kd: 2.11 nM
  ka: 61600 M⁻¹ s⁻¹
  kd: 0.00013 s⁻¹
Chimeric antibody No. 92
  Kd: 2.66 nM
  ka: 67300 M⁻¹ s⁻¹
  kd: 0.000179 s⁻¹
Chimeric antibody No. 93
  Kd: 2.81 nM
  ka: 85700 M⁻¹ s⁻¹
  kd: 0.000241 s⁻¹
[6]
  IC50: 1.43 nM
[7]
  IC50: 4.76 nM
[8]
  IC50: 1.37 nM
[9]
  IC50: 1.32 nM
[10]
  IC50: 1.59 nM
[11]
  IC50: 83.8 nM
[12]
  IC50: 54.7 nM
[13]
  IC50: 1.89 nM

## Enfortumab vedotin [EV]
Nectin-4
  Top OD450: 1.23
HCC1954 [14]
  IC50: 148 nM
  MIR (%): 70.90%
OVCAR3 [15]
  IC50: 33.3 nM
  MIR (%): 60.27%
CHOK1 [16]
  MIR (%): 17.40%
[17]; Nectin4A14-DL01-MMAE 136 mg/kg vs EV 100 mg/kg
  Clinical Observation: Piloerection (4/4), Hunched posture (5/5), Squinting eyes (5/5), Lethargy (1/5)
[17]; Nectin4A14-DL01-MMAE 136 mg/kg vs EV 100 mg/kg (equimolar)
  Death: 2/9
[17]; Nectin4A14-DL01-MMAE 136 mg/kg vs EV 100 mg/kg, day in brackets in the cell
  Max Body Weight Change Rate: -24.4% (D7)
[17]; Nectin-4 comparison
  tolerance: less than 100 mg/kg
[18]
  Free MMAE AUC: 9.09097 ± 0.65517 µM·h
  Free MMAE Cmax: 76.08 ± 4.88 nM
  Free MMAE Tmax: 24 h
[19]
  TGI: 71%
